Converted amounts (≈) assume the structure as drawn. Read-outs that look alike come from different tables or passages of the source.
Tested on: M. tuberculosis
Test: microbe, parasite or virus in culture
Type: cell-based, Mycobacterium tuberculosis
Conditions: resistance profile INH; for MIC90: Mycobacterium tuberculosis
[1] = read-out: In vitro MIC90, strain BC-MDR2, RIF, PZA, SM, RBT
[2] = read-out: In vitro MIC90, strain BC-MDR3, RIF, RBT
[3] = read-out: In vitro MIC90, strain BC-MDR4, RIF, EMB, PZA, RBT
[4] = read-out: In vitro MIC90, strain BC-MDR5, RIF, PZA, SM, PAS, RBT
[5] = read-out: In vitro MIC90, strain CI5058, RIF
[6] = read-out: In vitro MIC90, strain CI5072, RIF, SM
[7] = read-out: In vitro MIC90, strain CI5297
[8] = read-out: In vitro MIC90, strain CI5305
[9] = read-out: In vitro MIC90, strain CI5324, RIF
[10] = read-out: In vitro MIC90, strain CI5358, EMB, ETH
[11] = read-out: In vitro MIC90, strain CI5400, RIF
[12] = read-out: In vitro MIC90, strain CI5447
[13] = read-out: In vitro MIC90, strain CI5459, EMB, ETH
[14] = read-out: In vitro MIC90, strain CI12081, RIF, SM, EMB, ETH
[15] = read-out: In vitro MIC90, strain KZN5, RIF, SM, EMB, ETH, KM, PZA
[16] = read-out: In vitro MIC90, strain KZN6, RIF, SM, EMB, ETH, KM, PZA
[17] = read-out: In vitro MIC90, strain KZN11, RIF, SM, EMB
[18] = read-out: In vitro MIC90, strain KZN12, RIF, SM, EMB, ETH, KM, PZA
[19] = read-out: In vitro MIC90, strain KZN14, RIF, SM, EMB, ETH, KM, PZA
[20] = read-out: In vitro MIC90, strain KZN15, RIF, SM, EMB, ETH, KM, PZA
[21] = read-out: In vitro MIC90, strain KZN16, RIF, SM, EMB, ETH, KM, PZA
[22] = read-out: In vitro MIC90, strain V2475, RIF

For `CC[C@H](C)[C@H]1O[C@]2(CC[C@@H]1C)C[C@@H]1C[C@@H](C/C=C(\C)[C@@H](O[C@H]3C[C@H](OC)[C@@H](O[C@H]4C[C@H](OC)[C@@H](O)[C@H](C)O4)[C@H](C)O3)[C@@H](C)/C=C/C=C3\CO[C@@H]4[C@H](O)C(C)=C[C@@H](C(=O)O1)[C@]34O)O2` [Ivermectin], the “In vitro MIC90” value (strain BC-MDR2, RIF, PZA, SM, RBT) was > 128 mg/L, the “In vitro MIC90” value (strain BC-MDR3, RIF, RBT) was 1 to 2 mg/L and the “In vitro MIC90” value (strain BC-MDR4, RIF, EMB, PZA, RBT) was 4 to 16 mg/L. The “In vitro MIC90” value (strain BC-MDR5, RIF, PZA, SM, PAS, RBT) was 4 to 16 mg/L, the “In vitro MIC90” value (strain CI5058, RIF) was 6 mg/L and the “In vitro MIC90” value (strain CI5072, RIF, SM) was >24 mg/L. For the same molecule, the “In vitro MIC90” value (strain CI5297) was 6 mg/L, the “In vitro MIC90” value (strain CI5305) was 3 mg/L and the “In vitro MIC90” value (strain CI5324, RIF) was 6 mg/L. For the same molecule, the “In vitro MIC90” value (strain CI5358, EMB, ETH) was 3 mg/L, the “In vitro MIC90” value (strain CI5400, RIF) was 3 mg/L and the “In vitro MIC90” value (strain CI5447) was 1.5 mg/L. The “In vitro MIC90” value (strain CI5459, EMB, ETH) was 3 mg/L, the “In vitro MIC90” value (strain CI12081, RIF, SM, EMB, ETH) was >24 mg/L and the “In vitro MIC90” value (strain H37Rv mc^24977) was 6 mg/L. The “In vitro MIC90” value (strain H37Rv mc^25857, RIF) was 3 mg/L, the “In vitro MIC90” value (strain H37Rv mc^25858, RIF) was 3 mg/L and the “In vitro MIC90” value (strain KZN5, RIF, SM, EMB, ETH, KM, PZA) was 6 mg/L. For the same molecule, the “In vitro MIC90” value (strain KZN6, RIF, SM, EMB, ETH, KM, PZA) was 6 mg/L, the “In vitro MIC90” value (strain KZN11, RIF, SM, EMB) was 3 mg/L and the “In vitro MIC90” value (strain KZN12, RIF, SM, EMB, ETH, KM, PZA) was 3 mg/L. The “In vitro MIC90” value (strain KZN14, RIF, SM, EMB, ETH, KM, PZA) was 6 to 12 mg/L, the “In vitro MIC90” value (strain KZN15, RIF, SM, EMB, ETH, KM, PZA) was 6 mg/L and the “In vitro MIC90” value (strain KZN16, RIF, SM, EMB, ETH, KM, PZA) was 3 mg/L. The “In vitro MIC90” value (strain V2475, RIF) was 1.5 mg/L.

`CO/N=C1\C[C@]2(C[C@@H]3C[C@@H](C/C=C(\C)C[C@@H](C)/C=C/C=C4\CO[C@@H]5[C@H](O)C(C)=C[C@@H](C(=O)O3)[C@]45O)O2)O[C@H](/C(C)=C/C(C)C)[C@H]1C` [Moxidectin] gave an MIC90 [1] of 2 to 4 mg/L (≈ 3.13 to 6.25 µM), an MIC90 [2] of 1 to 2 mg/L (≈ 1.56 to 3.13 µM) and an MIC90 [3] of 2 to 4 mg/L (≈ 3.13 to 6.25 µM). It also gave an MIC90 [4] of 2 to 4 mg/L (≈ 3.13 to 6.25 µM), an MIC90 [5] of 6 mg/L (≈ 9.38 µM) and an MIC90 [6] of 3 mg/L (≈ 4.69 µM). For the same molecule, the MIC90 [7] was 6 mg/L (≈ 9.38 µM), the MIC90 [8] was 1.5 mg/L (≈ 2.34 µM) and the MIC90 [9] was 3 mg/L (≈ 4.69 µM). The MIC90 [10] was 3 mg/L (≈ 4.69 µM), the MIC90 [11] was 3 mg/L (≈ 4.69 µM) and the MIC90 [12] was 0.8 to 1.5 mg/L (≈ 1.25 to 2.34 µM). It also gave an MIC90 [13] of 1.5 mg/L (≈ 2.34 µM), an MIC90 [14] of 3 mg/L (≈ 4.69 µM) and an MIC90 [15] of 3 mg/L (≈ 4.69 µM). For the same molecule, the MIC90 [16] was 3 mg/L (≈ 4.69 µM), the MIC90 [17] was 3 mg/L (≈ 4.69 µM) and the MIC90 [18] was 1.5 mg/L (≈ 2.34 µM). For the same molecule, the MIC90 [19] was 3 to 6 mg/L (≈ 4.69 to 9.38 µM), the MIC90 [20] was 3 mg/L (≈ 4.69 µM) and the MIC90 [21] was 1.5 mg/L (≈ 2.34 µM). The MIC90 [22] was 3 mg/L (≈ 4.69 µM).

Molecule `CO[C@H]1C[C@H](O[C@@H]2/C(C)=C/C[C@@H]3C[C@@H](C[C@]4(CC[C@H](C)[C@@H](C5CCCCC5)O4)O3)OC(=O)[C@@H]3C=C(C)/C(=N/O)[C@H]4OC/C(=C\C=C\[C@@H]2C)[C@]43O)O[C@@H](C)[C@@H]1O` [Selamectin] has an MIC90 [1] of 2 mg/L (≈ 2.6 µM), an MIC90 [2] of 0.5 to 1 mg/L (≈ 0.649 to 1.3 µM) and an MIC90 [3] of 2 mg/L (≈ 2.6 µM). The MIC90 [4] was 2 mg/L (≈ 2.6 µM), the MIC90 [5] was 6 mg/L (≈ 7.79 µM) and the MIC90 [6] was 3 to 6 mg/L (≈ 3.9 to 7.79 µM). For the same molecule, the MIC90 [7] was 3 mg/L (≈ 3.9 µM), the MIC90 [8] was 1.5 mg/L (≈ 1.95 µM) and the MIC90 [9] was 3 mg/L (≈ 3.9 µM). The MIC90 [10] was 1.5 mg/L (≈ 1.95 µM), the MIC90 [11] was 3 mg/L (≈ 3.9 µM) and the MIC90 [12] was 1.5 mg/L (≈ 1.95 µM). The MIC90 [13] was 1.5 to 3 mg/L (≈ 1.95 to 3.9 µM), the MIC90 [14] was 3 mg/L (≈ 3.9 µM) and the MIC90 [15] was 3 mg/L (≈ 3.9 µM). For the same molecule, the MIC90 [16] was 6 mg/L (≈ 7.79 µM), the MIC90 [17] was 3 mg/L (≈ 3.9 µM) and the MIC90 [18] was 3 mg/L (≈ 3.9 µM). It also gave an MIC90 [19] of 6 mg/L (≈ 7.79 µM), an MIC90 [20] of 3 mg/L (≈ 3.9 µM) and an MIC90 [21] of 1.5 mg/L (≈ 1.95 µM). It also gave an MIC90 [22] of 1.5 mg/L (≈ 1.95 µM).

Reference: patent publication US9308215B2, “Avermectins and milbemycins as anti-mycobacterial agents” (priority 2013, dated 2016)
